Laboratory results as given in BindingDB's records for doi:10.1021/jm00066a012 (Upjohn Laboratories, 1993).

Experiment: In vitro inhibitory activity against ADP-induced human platelet aggregation

Row | IC50 [µM] | Compound
1 | 53 | O=c1cc(N2CCOCC2)oc2cc(OCc3ccccn3)ccc12 [2-Morpholin-4-yl-7-(pyridin-2-ylmethoxy)-chromen-4-one]
2 | 9 | COC(=O)COc1ccc2c(=O)cc(N3CCOCC3)oc2c1C [(8-Methyl-2-morpholin-4-yl-4-oxo-4H-chromen-7-yloxy)-acetic acid methyl ester]
3 | 2.8 | Cc1c(OCc2nnnn2C)ccc2c(=O)cc(N3CCOCC3)oc12 [8-Methyl-7-(1-methyl-1H-tetrazol-5-ylmethoxy)-2-morpholin-4-yl-chromen-4-one]
4 | 12 | Cc1c(OCCN2CCN(CCO)CC2)ccc2c(=O)cc(N3CCOCC3)oc12 [7-{2-[4-(2-Hydroxy-ethyl)-piperazin-1-yl]-ethoxy}-8-methyl-2-morpholin-4-yl-chromen-4-one]
5 | 43 | CCN(CCOc1ccc2c(=O)cc(N3CCOCC3)oc2c1C)c1ccccc1 [7-[2-(Ethyl-phenyl-amino)-ethoxy]-8-methyl-2-morpholin-4-yl-chromen-4-one]
6 | 40 | Cc1c(OCc2ccccc2)ccc2c(=O)cc(N3CCOCC3)oc12 [7-Benzyloxy-8-methyl-2-morpholin-4-yl-chromen-4-one]
7 | 14 | CCN(CCO)CCOc1ccc2c(=O)cc(N3CCOCC3)oc2c1C [7-{2-[Ethyl-(2-hydroxy-ethyl)-amino]-ethoxy}-8-methyl-2-morpholin-4-yl-chromen-4-one]
8 | 0.85 | Cc1c(OCCN2CCN(C)CC2)ccc2c(=O)cc(N3CCOCC3)oc12 [7-[2-(4-methylpiperazin-1-yl)ethoxy]-8-methyl-2-morpholinyl chromone]
9 | 41 | COc1ccc2c(=O)cc(N3CCOCC3)oc2c1C [7-Methoxy-8-methyl-2-morpholin-4-yl-chromen-4-one]
10 | 4 | Cc1c(OCc2cccnc2)ccc2c(=O)cc(N3CCOCC3)oc12 [8-Methyl-2-morpholin-4-yl-7-(pyridin-3-ylmethoxy)-chromen-4-one]
11 | 4 | Cc1c(OCCN2CCCC2)ccc2c(=O)cc(N3CCOCC3)oc12 [8-Methyl-2-morpholin-4-yl-7-(2-pyrrolidin-1-yl-ethoxy)-chromen-4-one]
12 | 12 | CC(=O)COc1ccc2c(=O)cc(N3CCOCC3)oc2c1C [8-Methyl-2-morpholin-4-yl-7-(2-oxo-propoxy)-chromen-4-one]
13 | 13 | Cc1c(OCc2cccc3ccccc23)ccc2c(=O)cc(N3CCOCC3)oc12 [8-Methyl-2-morpholin-4-yl-7-(naphthalen-1-ylmethoxy)-chromen-4-one]
14 | 14 | CSCCOc1ccc2c(=O)cc(N3CCOCC3)oc2c1C [8-Methyl-7-(2-methylsulfanyl-ethoxy)-2-morpholin-4-yl-chromen-4-one]
15 | 11 | Cc1c(OCCN2CCN(Cc3ccccc3)CC2)ccc2c(=O)cc(N3CCOCC3)oc12 [7-[2-(4-Benzyl-piperazin-1-yl)-ethoxy]-8-methyl-2-morpholin-4-yl-chromen-4-one]
16 | 41 | O=c1cc(N2CCOCC2)oc2cc(OCc3cccc4ccccc34)ccc12 [2-Morpholin-4-yl-7-(naphthalen-1-ylmethoxy)-chromen-4-one]
17 | 65 | Cc1c(OCc2ccc3ccccc3c2)ccc2c(=O)cc(N3CCOCC3)oc12 [8-Methyl-2-morpholin-4-yl-7-(naphthalen-2-ylmethoxy)-chromen-4-one]
18 | 47 | COc1ccc(COc2ccc3c(=O)cc(N4CCOCC4)oc3c2C)cc1 [7-(4-Methoxy-benzyloxy)-8-methyl-2-morpholin-4-yl-chromen-4-one]
19 | 2 | Cc1c(OCc2nnnn2C(C)(C)C)ccc2c(=O)cc(N3CCOCC3)oc12 [7-(1-tert-Butyl-1H-tetrazol-5-ylmethoxy)-8-methyl-2-morpholin-4-yl-chromen-4-one]
20 | 59 | COC(=O)COc1ccc2c(=O)c(C)c(N3CCOCC3)oc2c1C [(3,8-Dimethyl-2-morpholin-4-yl-4-oxo-4H-chromen-7-yloxy)-acetic acid methyl ester]
21 | 8 | Cc1c(OCc2nnnn2-c2ccccc2)ccc2c(=O)cc(N3CCOCC3)oc12 [8-Methyl-2-morpholin-4-yl-7-(1-phenyl-1H-tetrazol-5-ylmethoxy)-chromen-4-one]

Row | IC50 [µM] | Compound
22 | 43 | Cc1c(OCC(=O)c2ccccc2)ccc2c(=O)cc(N3CCOCC3)oc12 [8-Methyl-2-morpholin-4-yl-7-(2-oxo-2-phenyl-ethoxy)-chromen-4-one]
23 | 8.9 | C=CCc1c(OCCN2CCN(C)CC2)ccc2c(=O)cc(N3CCOCC3)oc12 [8-Allyl-7-[2-(4-methyl-piperazin-1-yl)-ethoxy]-2-morpholin-4-yl-chromen-4-one]
24 | 5 | Cc1c(OCCN2CCCCC2)ccc2c(=O)cc(N3CCOCC3)oc12 [8-Methyl-2-morpholin-4-yl-7-(2-piperidin-1-yl-ethoxy)-chromen-4-one]
25 | > 75 | Cc1c(N2CCOCC2)oc2c(C)c(OCc3cccc4ccccc34)ccc2c1=O [3,8-Dimethyl-2-morpholin-4-yl-7-(naphthalen-1-ylmethoxy)-chromen-4-one]
26 | 35 | CN1CCN(CCOc2ccc3c(=O)cc(N4CCOCC4)oc3c2)CC1 [7-[2-(4-Methyl-piperazin-1-yl)-ethoxy]-2-morpholin-4-yl-chromen-4-one]
27 | 4 | CCc1c(OCCN2CCN(C)CC2)ccc2c(=O)cc(N3CCOCC3)oc12 [8-Ethyl-7-[2-(4-methyl-piperazin-1-yl)-ethoxy]-2-morpholin-4-yl-chromen-4-one]
28 | 69 | CCCc1c(OCCN2CCN(C)CC2)ccc2c(=O)cc(N3CCOCC3)oc12 [7-[2-(4-Methyl-piperazin-1-yl)-ethoxy]-2-morpholin-4-yl-8-propyl-chromen-4-one]
29 | 3 | C=Cc1c(OCCN2CCN(C)CC2)ccc2c(=O)cc(N3CCOCC3)oc12 [7-[2-(4-Methyl-piperazin-1-yl)-ethoxy]-2-morpholin-4-yl-8-vinyl-chromen-4-one]
30 | 3 | Cc1c(OCCN2CCCCCC2)ccc2c(=O)cc(N3CCOCC3)oc12 [7-(2-Azepan-1-yl-ethoxy)-8-methyl-2-morpholin-4-yl-chromen-4-one]
31 | 4 | Cc1c(OCCN2CCNCC2)ccc2c(=O)cc(N3CCOCC3)oc12 [8-Methyl-2-morpholin-4-yl-7-(2-piperazin-1-yl-ethoxy)-chromen-4-one]
32 | 2.6 | CCN(CC)CCOc1ccc2c(=O)cc(N3CCOCC3)oc2c1C [7-(2-Diethylamino-ethoxy)-8-methyl-2-morpholin-4-yl-chromen-4-one]
33 | > 75 | Cc1c(N2CCOCC2)oc2c(C)c(OCc3ccccc3)ccc2c1=O [7-Benzyloxy-3,8-dimethyl-2-morpholin-4-yl-chromen-4-one]
34 | 4.3 | Cc1c(OCCN2CCSCC2)ccc2c(=O)cc(N3CCOCC3)oc12 [8-Methyl-2-morpholin-4-yl-7-(2-thiomorpholin-4-yl-ethoxy)-chromen-4-one]
35 | 12 | Cc1c(OCc2nnnn2C2CCCCC2)ccc2c(=O)cc(N3CCOCC3)oc12 [7-(1-Cyclohexyl-1H-tetrazol-5-ylmethoxy)-8-methyl-2-morpholin-4-yl-chromen-4-one]
36 | 19 | Cc1c(OCc2ccccn2)ccc2c(=O)cc(N3CCOCC3)oc12 [8-Methyl-2-morpholin-4-yl-7-(pyridin-2-ylmethoxy)-chromen-4-one]
37 | 44 | COc1ccccc1COc1ccc2c(=O)cc(N3CCOCC3)oc2c1C [7-(2-Methoxy-benzyloxy)-8-methyl-2-morpholin-4-yl-chromen-4-one]
38 | 1.4 | Cc1cc2c(=O)cc(N3CCOCC3)oc2c(C)c1OCCN1CCN(C)CC1 [6,8-Dimethyl-7-[2-(4-methyl-piperazin-1-yl)-ethoxy]-2-morpholin-4-yl-chromen-4-one]
39 | > 75 | Cc1c(OCCN2CCN(c3ccccc3)CC2)ccc2c(=O)cc(N3CCOCC3)oc12 [8-Methyl-2-morpholin-4-yl-7-[2-(4-phenyl-piperazin-1-yl)-ethoxy]-chromen-4-one]
40 | 58 | C=CCOc1ccc2c(=O)cc(N3CCOCC3)oc2c1C [7-Allyloxy-8-methyl-2-morpholin-4-yl-chromen-4-one]
41 | 7 | COCCOc1ccc2c(=O)cc(N3CCOCC3)oc2c1C [7-(2-Methoxy-ethoxy)-8-methyl-2-morpholin-4-yl-chromen-4-one]
